Assay results as given in patent US10793568B2, “Hormone receptor modulators for treating metabolic conditions and disorders” (ARDELYX, INC., priority 2016, dated 2020).

What was measured:
[1] = molecular target: ligand binding domain of human FXR (Homo sapiens (Human), UniProt Q96RI1); experiment: FXR ligand binding assay (LanthaScreen TR-FRET, SRC2-2 peptide recruitment); details: for pEC50: -log EC50, concentration required to produce 50% activation; for Emax: extent of activation relative to GW4064, read-out: % Efficacy
Sequence of ligand binding domain of human FXR (Q96RI1 262-486): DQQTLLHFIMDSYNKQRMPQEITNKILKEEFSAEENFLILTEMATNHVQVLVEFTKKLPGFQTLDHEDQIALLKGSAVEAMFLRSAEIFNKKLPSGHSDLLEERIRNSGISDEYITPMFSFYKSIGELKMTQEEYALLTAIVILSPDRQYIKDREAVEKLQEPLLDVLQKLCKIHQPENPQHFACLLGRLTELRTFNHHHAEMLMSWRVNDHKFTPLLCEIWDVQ

[2] = molecular target: human Farnesoid X receptor ligand-binding domain/Gal4 DNA binding domain chimera (Homo sapiens (Human), UniProt Q96RI1); experiment: Cell-based assay of FXR activation (FXR-UAS-bla HEK 293T beta-lactamase reporter); details: cellular FXR beta-lactamase reporter assay; for Emax: HEK-293T, extent of activation relative to GW4064, read-out: % Efficacy; for EC50: FXR-UAS-bla HEK 293T cells, 16 h, pEC50 = -log EC50
Sequence of human Farnesoid X receptor ligand-binding domain/Gal4 DNA binding domain chimera (Q96RI1 262-486, change not shown): as the sequence (Q96RI1 262-486) above
Sequence of human Farnesoid X receptor ligand-binding domain/Gal4 DNA binding domain chimera (P04386 1-147 partner): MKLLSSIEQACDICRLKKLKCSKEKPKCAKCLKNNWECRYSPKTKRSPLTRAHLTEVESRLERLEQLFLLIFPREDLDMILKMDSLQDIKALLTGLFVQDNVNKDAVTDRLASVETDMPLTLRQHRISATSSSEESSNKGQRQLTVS
How it was run: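 Readout is cleavage of the CCF4 FRET substrate (409 nm excitation, blue 447 nm signal) by beta-lactamase, expressed under UAS control after a Gal4–human FXR LBD chimera is activated in HEK 293T cells. Compounds were added as 3-fold dilutions for 16 h at 37 °C in 2% charcoal-stripped FBS medium. Curves were fit to a 3-parameter logistic equation to give pEC50, with % activation relative to GW4064.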

Structure (SMILES)	pEC50 [1]	Emax [1] [%]	Emax [2] [%]	EC50 [2] [nM]
O=C(O)CCc1ccc(N2C(=O)[C@@H]3C[C@H]2C[C@H]3OCc2c(-c3c(Cl)cccc3Cl)noc2C2CC2)cc1 [Compound I-303, 3-{4-[(1S,4R,5R)-5-{[5-cyclopropyl-3-(2,6-dichlorophenyl)-1,2-oxazol-4-yl]methoxy}-3-oxo-2-azabicyclo[2.2.1]heptan-2-yl]phenyl}propanoic Acid]	7.4	132	98	6.31
O=C(O)CCc1ccc(N2C(=O)[C@@H]3C[C@H]2C[C@H]3OCc2c(-c3c(Cl)cccc3Cl)noc2C2CC2)c(F)c1 [Compound I-304, 3-{4-[(1S,4R,5R)-5-{[5-cyclopropyl-3-(2,6-dichlorophenyl)-1,2-oxazol-4-yl]methoxy}-3-oxo-2-azabicyclo[2.2.1]heptan-2-yl]-3-fluorophenyl}propanoic Acid]	6.6	118	107	100
O=C(O)CCc1ccc(N2C(=O)[C@@H]3C[C@H]2C[C@H]3OCc2c(-c3c(Cl)cccc3Cl)noc2C2CC2)cc1F [Compound I-305, 3-{4-[(1S,4R,5R)-5-{[5-cyclopropyl-3-(2,6-dichlorophenyl)-1,2-oxazol-4-yl]methoxy}-3-oxo-2-azabicyclo[2.2.1]heptan-2-yl]-2-fluorophenyl}propanoic Acid]	7.5	121	98	3.16
O=C(O)c1ccc(N2C(=O)[C@@H]3C[C@H]2C[C@H]3OCc2c(-c3c(F)cccc3Cl)noc2C2CC2)cc1 [Compound I-306, 4-[(1S,4R,5R)-5-{[3-(2-chloro-6-fluorophenyl)-5-cyclopropyl-1,2-oxazol-4-yl]methoxy}-3-oxo-2-azabicyclo[2.2.1]heptan-2-yl]benzoic Acid]	8.2	171	108	2.51
Cc1cccc(F)c1-c1noc(C2CC2)c1CO[C@@H]1C[C@@H]2C[C@H]1C(=O)N2c1ccc(C(=O)O)cc1 [Compound I-307, 4-[(1S,4R,5R)-5-{[5-cyclopropyl-3-(2-fluoro-6-methylphenyl)-1,2-oxazol-4-yl]methoxy}-3-oxo-2-azabicyclo[2.2.1]heptan-2-yl]benzoic Acid]	7.4	154	110	10
Cc1cccc(C)c1-c1noc(C2CC2)c1CO[C@@H]1C[C@@H]2C[C@H]1C(=O)N2c1ccc(C(=O)O)cc1 [Compound I-308, 4-[(1S,4R,5R)-5-{[5-cyclopropyl-3-(2,6-dimethylphenyl)-1,2-oxazol-4-yl]methoxy}-3-oxo-2-azabicyclo[2.2.1]heptan-2-yl]benzoic Acid]	7.6	150	99	3.98
Cc1cccc(Cl)c1-c1noc(C2CC2)c1CO[C@@H]1C[C@@H]2C[C@H]1C(=O)N2c1ccc(C(=O)O)cc1 [Compound I-309, 4-[(1S,4R,5R)-5-{[3-(2-chloro-6-methylphenyl)-5-cyclopropyl-1,2-oxazol-4-yl]methoxy}-3-oxo-2-azabicyclo[2.2.1]heptan-2-yl]benzoic Acid]	8.2	157	104	1.58
CC(C)c1cccc(F)c1-c1noc(C2CC2)c1CO[C@@H]1C[C@@H]2C[C@H]1C(=O)N2c1ccc(C(=O)O)cc1 [Compound I-310, 4-[(1S,4R,5R)-5-({5-cyclopropyl-3-[2-fluoro-6-(propan-2-yl)phenyl]-1,2-oxazol-4-yl}methoxy)-3-oxo-2-azabicyclo[2.2.1]heptan-2-yl]benzoic Acid]	7.6	155	115	7.94
O=C(O)c1ccc(N2C(=O)[C@@H]3C[C@H]2C[C@H]3OCc2c(-c3c(F)cccc3C3CC3)noc2C2CC2)cc1 [Compound I-311, 4-[(1S,4R,5R)-5-{[5-cyclopropyl-3-(2-cyclopropyl-6-fluorophenyl)-1,2-oxazol-4-yl]methoxy}-3-oxo-2-azabicyclo[2.2.1]heptan-2-yl]benzoic Acid]	7.8	148	105	3.98
O=C(O)C1CCc2cc(N3C(=O)[C@@H]4C[C@H]3C[C@H]4OCc3c(-c4c(Cl)cccc4Cl)noc3C3CC3)ccc21 (stereo partly drawn) [Compound I-312, 5-[(1S,4R,5R)-5-{[5-cyclopropyl-3-(2,6-dichlorophenyl)-1,2-oxazol-4-yl]methoxy}-3-oxo-2-azabicyclo[2.2.1]heptan-2-yl]-2,3-dihydro-1H-indene-1-carboxylic Acid]	7	149	134	20
O=C(O)C1Cc2ccc(N3C(=O)[C@@H]4C[C@H]3C[C@H]4OCc3c(-c4c(Cl)cccc4Cl)noc3C3CC3)cc2C1 (stereo partly drawn) [Compound I-313, 5-[(1S,4R,5R)-5-{[5-cyclopropyl-3-(2,6-dichlorophenyl)-1,2-oxazol-4-yl]methoxy}-3-oxo-2-azabicyclo[2.2.1]heptan-2-yl]-2,3-dihydro-1H-indene-2-carboxylic Acid]	7	140	112	25.1
O=C(O)c1ccc(N2C(=O)[C@@H]3C[C@H]2C[C@H]3OCc2c(-c3c(Cl)cccc3Cl)noc2C2CC2)cc1F [Compound I-314, 4-[(1S,4R,5R)-5-{[5-cyclopropyl-3-(2,6-dichlorophenyl)-1,2-oxazol-4-yl]methoxy}-3-oxo-2-azabicyclo[2.2.1]heptan-2-yl]-2-fluorobenzoic Acid]	8.4	145	103	2.51
O=C(O)c1ccc(N2C(=O)[C@@H]3C[C@H]2C[C@H]3OCc2c(-c3c(Cl)cccc3Cl)noc2C2CC2)c(F)c1 [Compound I-315, 4-[(1S,4R,5R)-5-{[5-cyclopropyl-3-(2,6-dichlorophenyl)-1,2-oxazol-4-yl]methoxy}-3-oxo-2-azabicyclo[2.2.1]heptan-2-yl]-3-fluorobenzoic Acid]	7.4	157	106	25.1
Cc1cc(N2C(=O)[C@@H]3C[C@H]2C[C@H]3OCc2c(-c3c(Cl)cccc3Cl)noc2C2CC2)ccc1C(=O)O [Compound I-316, 4-[(1S,4R,5R)-5-{[5-cyclopropyl-3-(2,6-dichlorophenyl)-1,2-oxazol-4-yl]methoxy}-3-oxo-2-azabicyclo[2.2.1]heptan-2-yl]-2-methylbenzoic Acid]	7.6	152	109	7.94
Cc1cc(C(=O)O)ccc1N1C(=O)[C@@H]2C[C@H]1C[C@H]2OCc1c(-c2c(Cl)cccc2Cl)noc1C1CC1 [Compound I-317, 4-[(1S,4R,5R)-5-{[5-cyclopropyl-3-(2,6-dichlorophenyl)-1,2-oxazol-4-yl]methoxy}-3-oxo-2-azabicyclo[2.2.1]heptan-2-yl]-3-methylbenzoic Acid]	6.7	131	126	100
CCc1cc(N2C(=O)[C@@H]3C[C@H]2C[C@H]3OCc2c(-c3c(Cl)cccc3Cl)noc2C2CC2)ccc1C(=O)O [Compound I-318, 4-[(1S,4R,5R)-5-{[5-cyclopropyl-3-(2,6-dichlorophenyl)-1,2-oxazol-4-yl]methoxy}-3-oxo-2-azabicyclo[2.2.1]heptan-2-yl]-2-ethylbenzoic Acid]	7.2	127	116	6.31
O=C(O)c1ccc(N2C(=O)[C@@H]3C[C@H]2C[C@H]3OCc2c(-c3c(Cl)cccc3Cl)noc2C2CC2)cc1C1CC1 [Compound I-319, 2-cyclopropyl-4-[(1S,4R,5R)-5-{[5-cyclopropyl-3-(2,6-dichlorophenyl)-1,2-oxazol-4-yl]methoxy}-3-oxo-2-azabicyclo[2.2.1]heptan-2-yl]benzoic Acid]	7.4	118	113	10
O=C(O)c1ccc(C2CC2)cc1N1C(=O)[C@@H]2C[C@H]1C[C@H]2OCc1c(-c2c(Cl)cccc2Cl)noc1C1CC1 [Compound I-320, 4-cyclopropyl-2-[(1S,4R,5R)-5-{[5-cyclopropyl-3-(2,6-dichlorophenyl)-1,2-oxazol-4-yl]methoxy}-3-oxo-2-azabicyclo[2.2.1]heptan-2-yl]benzoic Acid]	7.5	114	110	20
CC1(C)CC(S(=O)(=O)NC(=O)c2ccc(N3C(=O)[C@@H]4C[C@H]3C[C@H]4OCc3c(-c4c(Cl)cccc4Cl)noc3C3CC3)cc2)CCO1 (stereo partly drawn) [Compound I-329, 4-[(1S,4R,5R)-5-{[5-cyclopropyl-3-(2,6-dichlorophenyl)-1,2-oxazol-4-yl]methoxy}-3-oxo-2-azabicyclo[2.2.1]heptan-2-yl]-N-[(2,2-dimethyloxan-4-yl)sulfonyl]benzamide]	9	162	117	0.794
CC1(C)CC(S(=O)(=O)NC(=O)c2ccc(N3C(=O)[C@@H]4C[C@H]3C[C@H]4OCc3c(-c4c(Cl)cccc4Cl)noc3C3CC3)cc2F)CCO1 (stereo partly drawn) [Compound I-330, 4-[(1S,4R,5R)-5-{[5-cyclopropyl-3-(2,6-dichlorophenyl)-1,2-oxazol-4-yl]methoxy}-3-oxo-2-azabicyclo[2.2.1]heptan-2-yl]-N-[(2,2-dimethyloxan-4-yl)sulfonyl]-2-fluorobenzamide]	8.8	156	120	0.158
